Results on 14 substances are retold here after the OligoGym collection.

Oligonucleotides are given in HELM: sugar(base)linkage, 5' to 3'; d 2'-deoxyribose, r ribose, m 2'-O-methylribose, p phosphate. ss, as = sense and antisense strand
Also: test concentration or dose not given here.

The data set concerns the target Mmp7 (rat). Put plainly: reporter assay of Huesken 2005. The settings on record: siRNA.
Consider “RNA1{r(A)p.r(U)p.r(G)p.r(A)p.r(G)p.r(U)p.r(A)p.r(C)p.r(U)p.r(G)p.r(G)p.r(A)p.r(C)p.r(G)p.r(G)p.r(A)p.r(U)p.r(G)p.r(G)p.d(T)p.d(T)}|RNA2{r(C)p.r(C)p.r(A)p.r(U)p.r(C)p.r(C)p.r(G)p.r(U)p.r(C)p.r(C)p.r(A)p.r(G)p.r(U)p.r(A)p.r(C)p.r(U)p.r(C)p.r(A)p.r(U)p.d(C)p.d(C)}$$$RNA1{StrandType:ss}|RNA2{StrandType:as}$”, for which the normalised inhibition (eCFP-eYFP dual reporter) worked out at 41.9%.
Consider “RNA1{r(G)p.r(U)p.r(G)p.r(U)p.r(C)p.r(A)p.r(U)p.r(G)p.r(G)p.r(A)p.r(G)p.r(A)p.r(U)p.r(A)p.r(A)p.r(U)p.r(G)p.r(C)p.r(A)p.d(T)p.d(T)}|RNA2{r(U)p.r(G)p.r(C)p.r(A)p.r(U)p.r(U)p.r(A)p.r(U)p.r(C)p.r(U)p.r(C)p.r(C)p.r(A)p.r(U)p.r(G)p.r(A)p.r(C)p.r(A)p.r(C)p.d(G)p.d(G)}$$$RNA1{StrandType:ss}|RNA2{StrandType:as}$”, for which the normalised inhibition (eCFP-eYFP dual reporter) was found to be 112%.
In the case of “RNA1{r(G)p.r(A)p.r(A)p.r(U)p.r(U)p.r(A)p.r(U)p.r(C)p.r(U)p.r(U)p.r(A)p.r(G)p.r(G)p.r(A)p.r(A)p.r(A)p.r(U)p.r(U)p.r(U)p.d(T)p.d(T)}|RNA2{r(A)p.r(A)p.r(A)p.r(U)p.r(U)p.r(U)p.r(C)p.r(C)p.r(U)p.r(A)p.r(A)p.r(G)p.r(A)p.r(U)p.r(A)p.r(A)p.r(U)p.r(U)p.r(C)p.d(T)p.d(G)}$$$RNA1{StrandType:ss}|RNA2{StrandType:as}$”, the normalised inhibition (eCFP-eYFP dual reporter) turned out to be 116%.
In the case of “RNA1{r(A)p.r(A)p.r(A)p.r(U)p.r(U)p.r(U)p.r(U)p.r(A)p.r(C)p.r(C)p.r(U)p.r(U)p.r(C)p.r(A)p.r(C)p.r(G)p.r(A)p.r(C)p.r(U)p.d(T)p.d(T)}|RNA2{r(A)p.r(G)p.r(U)p.r(C)p.r(G)p.r(U)p.r(G)p.r(A)p.r(A)p.r(G)p.r(G)p.r(U)p.r(A)p.r(A)p.r(A)p.r(A)p.r(U)p.r(U)p.r(U)p.d(C)p.d(C)}$$$RNA1{StrandType:ss}|RNA2{StrandType:as}$”, the normalised inhibition (eCFP-eYFP dual reporter) worked out at 74.4%.
For “RNA1{r(A)p.r(C)p.r(A)p.r(G)p.r(G)p.r(C)p.r(G)p.r(C)p.r(A)p.r(G)p.r(A)p.r(A)p.r(U)p.r(U)p.r(A)p.r(U)p.r(C)p.r(U)p.r(U)p.d(T)p.d(T)}|RNA2{r(A)p.r(A)p.r(G)p.r(A)p.r(U)p.r(A)p.r(A)p.r(U)p.r(U)p.r(C)p.r(U)p.r(G)p.r(C)p.r(G)p.r(C)p.r(C)p.r(U)p.r(G)p.r(U)p.d(T)p.d(C)}$$$RNA1{StrandType:ss}|RNA2{StrandType:as}$”, the normalised inhibition (eCFP-eYFP dual reporter) was 75.6%.
Consider “RNA1{r(C)p.r(A)p.r(C)p.r(U)p.r(C)p.r(U)p.r(A)p.r(G)p.r(G)p.r(C)p.r(C)p.r(A)p.r(U)p.r(G)p.r(C)p.r(C)p.r(U)p.r(U)p.r(U)p.d(T)p.d(T)}|RNA2{r(A)p.r(A)p.r(A)p.r(G)p.r(G)p.r(C)p.r(A)p.r(U)p.r(G)p.r(G)p.r(C)p.r(C)p.r(U)p.r(A)p.r(G)p.r(A)p.r(G)p.r(U)p.r(G)p.d(T)p.d(T)}$$$RNA1{StrandType:ss}|RNA2{StrandType:as}$”, for which the normalised inhibition (eCFP-eYFP dual reporter) stood at 101%.
As for “RNA1{r(C)p.r(C)p.r(C)p.r(A)p.r(G)p.r(G)p.r(U)p.r(G)p.r(U)p.r(G)p.r(G)p.r(A)p.r(G)p.r(U)p.r(G)p.r(C)p.r(C)p.r(A)p.r(G)p.d(T)p.d(T)}|RNA2{r(C)p.r(U)p.r(G)p.r(G)p.r(C)p.r(A)p.r(C)p.r(U)p.r(C)p.r(C)p.r(A)p.r(C)p.r(A)p.r(C)p.r(C)p.r(U)p.r(G)p.r(G)p.r(G)p.d(C)p.d(T)}$$$RNA1{StrandType:ss}|RNA2{StrandType:as}$”, the normalised inhibition (eCFP-eYFP dual reporter) was 60.7%.
“RNA1{r(U)p.r(G)p.r(U)p.r(U)p.r(U)p.r(G)p.r(U)p.r(U)p.r(G)p.r(C)p.r(C)p.r(A)p.r(C)p.r(U)p.r(C)p.r(A)p.r(U)p.r(G)p.r(A)p.d(T)p.d(T)}|RNA2{r(U)p.r(C)p.r(A)p.r(U)p.r(G)p.r(A)p.r(G)p.r(U)p.r(G)p.r(G)p.r(C)p.r(A)p.r(A)p.r(C)p.r(A)p.r(A)p.r(A)p.r(C)p.r(A)p.d(G)p.d(G)}$$$RNA1{StrandType:ss}|RNA2{StrandType:as}$”: the normalised inhibition (eCFP-eYFP dual reporter) is 105%.
As to “RNA1{r(U)p.r(G)p.r(G)p.r(C)p.r(C)p.r(C)p.r(U)p.r(G)p.r(C)p.r(C)p.r(A)p.r(C)p.r(U)p.r(G)p.r(U)p.r(C)p.r(C)p.r(C)p.r(A)p.d(T)p.d(T)}|RNA2{r(U)p.r(G)p.r(G)p.r(G)p.r(A)p.r(C)p.r(A)p.r(G)p.r(U)p.r(G)p.r(G)p.r(C)p.r(A)p.r(G)p.r(G)p.r(G)p.r(C)p.r(C)p.r(A)p.d(G)p.d(G)}$$$RNA1{StrandType:ss}|RNA2{StrandType:as}$”, the normalised inhibition (eCFP-eYFP dual reporter) was found to be 93.6%.
As to “RNA1{r(A)p.r(G)p.r(G)p.r(C)p.r(C)p.r(U)p.r(C)p.r(G)p.r(G)p.r(C)p.r(G)p.r(G)p.r(A)p.r(G)p.r(A)p.r(U)p.r(G)p.r(C)p.r(U)p.d(T)p.d(T)}|RNA2{r(A)p.r(G)p.r(C)p.r(A)p.r(U)p.r(C)p.r(U)p.r(C)p.r(C)p.r(G)p.r(C)p.r(C)p.r(G)p.r(A)p.r(G)p.r(G)p.r(C)p.r(C)p.r(U)p.d(G)p.d(G)}$$$RNA1{StrandType:ss}|RNA2{StrandType:as}$”, the normalised inhibition (eCFP-eYFP dual reporter) is 68.5%.
For “RNA1{r(U)p.r(G)p.r(U)p.r(G)p.r(A)p.r(U)p.r(G)p.r(U)p.r(A)p.r(C)p.r(C)p.r(C)p.r(U)p.r(A)p.r(C)p.r(C)p.r(U)p.r(A)p.r(U)p.d(T)p.d(T)}|RNA2{r(A)p.r(U)p.r(A)p.r(G)p.r(G)p.r(U)p.r(A)p.r(G)p.r(G)p.r(G)p.r(U)p.r(A)p.r(C)p.r(A)p.r(U)p.r(C)p.r(A)p.r(C)p.r(A)p.d(G)p.d(A)}$$$RNA1{StrandType:ss}|RNA2{StrandType:as}$”, the normalised inhibition (eCFP-eYFP dual reporter) amounted to 107%.
Take “RNA1{r(U)p.r(G)p.r(G)p.r(G)p.r(A)p.r(A)p.r(C)p.r(A)p.r(G)p.r(G)p.r(C)p.r(G)p.r(C)p.r(A)p.r(G)p.r(A)p.r(A)p.r(U)p.r(U)p.d(T)p.d(T)}|RNA2{r(A)p.r(A)p.r(U)p.r(U)p.r(C)p.r(U)p.r(G)p.r(C)p.r(G)p.r(C)p.r(C)p.r(U)p.r(G)p.r(U)p.r(U)p.r(C)p.r(C)p.r(C)p.r(A)p.d(C)p.d(T)}$$$RNA1{StrandType:ss}|RNA2{StrandType:as}$”: the normalised inhibition (eCFP-eYFP dual reporter) is 46.8%.
For the substance “RNA1{r(G)p.r(G)p.r(C)p.r(C)p.r(A)p.r(G)p.r(G)p.r(A)p.r(A)p.r(A)p.r(C)p.r(A)p.r(C)p.r(U)p.r(C)p.r(U)p.r(A)p.r(G)p.r(G)p.d(T)p.d(T)}|RNA2{r(C)p.r(C)p.r(U)p.r(A)p.r(G)p.r(A)p.r(G)p.r(U)p.r(G)p.r(U)p.r(U)p.r(U)p.r(C)p.r(C)p.r(U)p.r(G)p.r(G)p.r(C)p.r(C)p.d(C)p.d(A)}$$$RNA1{StrandType:ss}|RNA2{StrandType:as}$”, the normalised inhibition (eCFP-eYFP dual reporter) turned out to be 54.5%.
With “RNA1{r(G)p.r(G)p.r(G)p.r(C)p.r(C)p.r(A)p.r(G)p.r(G)p.r(A)p.r(A)p.r(A)p.r(C)p.r(A)p.r(C)p.r(U)p.r(C)p.r(U)p.r(A)p.r(G)p.d(T)p.d(T)}|RNA2{r(C)p.r(U)p.r(A)p.r(G)p.r(A)p.r(G)p.r(U)p.r(G)p.r(U)p.r(U)p.r(U)p.r(C)p.r(C)p.r(U)p.r(G)p.r(G)p.r(C)p.r(C)p.r(C)p.d(A)p.d(T)}$$$RNA1{StrandType:ss}|RNA2{StrandType:as}$”, the normalised inhibition (eCFP-eYFP dual reporter) worked out at 83.5%.
